We go through three compounds from US20240124610A1, “METHODS FOR TREATING HER2-NEGATIVE OR HER2-LOW CANCER” (Washington University, priority 2022, published 2024).

The test system of assay [1] is patients expressing BCAR4. Particulars: letrozole (AI treatment); public data GSE41994; FIG. 39; cited from earlier work.
The test system of assay [2] is breast cancer patients. Nature of the assay: Survival analysis of tamoxifen-treated breast cancer patients by BCAR4 expression. In kind it is in vivo, human. From the text:
FIG. 25 is a survival curve showing BCAR4-positive patients (blue) have worse outcome when treated with tamoxifen in accordance with the present disclosure.
BCAR4+ is categorized as the top 20% and BCAR4− as the bottom 80%.

For assay [3], the system named is MCF7 (ER+/HER2-negative) cells expressing full length BCAR4 or LITAF-BCAR4 gene fusion. Nature of the assay: Tamoxifen treatment of BCAR4-overexpressing breast cancer cells (FIG. 37). It is filed as cell-based. The settings on record: in vitro. From the text:
FIG. 37 is a graph showing BCAR4 gene fusion-expressing cells are resistance to Tamoxifen treatment in breast cancer in accordance with the present disclosure. MCF7 (ER+/HER2-negative) overexpressing cell lines expressing full length BCAR4 (B4) or LITAF-BCAR4 gene fusion (LB) were used.
BCAR4 gene fusion-expressing cells are resistant to Tamoxifen treatment in breast cancer (see e.g., FIG. 37). It is known that full length BCAR4 is resistant to tamoxifen therapy, but no one has shown that BCAR4 gene fusions cause resistance. BCAR4-fusions express only the 4th exon of BCAR4 gene.

The test system of assay [4] is BCAR4-expressing cells. Kind of assay: Cell growth under lapatinib treatment (FIG. 42). It is filed as cell-based. The settings on record: BCAR4-expressing cells treated with lapatinib. From the text: In breast cancer HER3 preferentially binds to HER2 to form a heterodimer.
In assay [5] the test system is HER2/HER3 signaling in ZR-75-1 cells. Kind of assay: Western blot of HER3/AKT signaling in lapatinib-treated cells (FIG. 29D). It is filed as cell-based. The arrangement: dose or concentration left out as unconfirmed. The settings on record: ZR-75-1 cells expressing full length BCAR4 or gene fusions.
Description: Antibodies against FLAG (2368S; RRID:AB_2217020, 1:1000; Cell Signaling Technology), actin (3700S; RRID:AB_2242334, 1:10,000; Cell Signaling Technology), Goat anti-mouse or anti-rabbit peroxidase-conjugated secondary antibodies (Thermo Fisher Scientific) were used for experiments. Protein samples were prepared with ice-cold RIPA lysis buffer (25 mmol/L Tris pH7.5, 1% NP40, 0.1% SDS, 150 mmol/L NaCl, 0.5% sodium deoxycholate, and 1× Halt Protease Inhibitor Cocktail; Thermo Fisher Scientific). Lysate was subjected to a short sonication and then clarified by centrifugation at maximum speed, 4° C. for 10 minutes. Protein concentration was determined with the DC Protein Assay (BioRad). Samples were diluted in loading buffer, boiled, and equal protein concentrations (20-30 mg) loaded and resolved by SDS-polyacrylamide gel electrophoresis in 12% or 4% to 12% Bolt Bis-Tris precast gels (Invitrogen). Gels were transferred at 60° C. for 1 hour to a nitrocellulose membrane (BioRad). Proteins were detected with specific antibodies and visualized and quantified on the ChemDoc MP Imaging System (BioRad) using secondary antibodies and Clarity Western ECL Substrate (Thermo Fisher Scientific).
The subject of assay [6] is ZR751 cells overexpressing BCAR4 full length or gene fusions. Kind of assay: Cell viability under lapatinib treatment (FIG. 24). In kind it is cell-based. Particulars: ZR751 cells overexpressing BCAR4 full length or gene fusions vs control cells without BCAR4, increased lapatinib.

“Also recorded” adds a separate entry of the source.

In the case of `N#Cc1ccc(C(c2ccc(C#N)cc2)n2cncn2)cc1` [letrozole], in assay [1], the “Progression Free Survival of top 25% of patients expressing BCAR4” value is “worse Progression Free Survival”.
In the case of `CC/C(=C(\c1ccccc1)c1ccc(OCCN(C)C)cc1)c1ccccc1` [tamoxifen], in assay [2] (tamoxifen only treatment, TCGA cohort (n=186), FIG. 35), the “outcome of BCAR4-high patients” value was “worse outcomes”. Moreover, in assay [2] (tamoxifen treatment, GSE6532 cohort, FIG. 36), the “distant metastasis free survival of BCAR4-high patients” value is on record as “worse distant metastasis free survival”. Also, the “outcome of early stage BCAR4-positive vs BCAR4-negative patients” value in assay [2] (tamoxifen, microarray data of early-stage breast cancer patients, FIG. 25) is on record as “poor outcome”. In addition, the “response to Tamoxifen treatment” value in assay [3] is on record as “resistant”.
`CS(=O)(=O)CCNCc1ccc(-c2ccc3ncnc(Nc4ccc(OCc5cccc(F)c5)c(Cl)c4)c3c2)o1` [lapatinib]: the cell growth result in assay [4] is reported as “decreased growth”. In addition, the “phosphorylation of HER3 and downstream activation of AKT” value in assay [5] is reported as “attenuated these changes; also recorded: inhibited”; in assay [5] (listed as Lapatinib), “lose HER3 activation”. In addition, in assay [6], the cell viability entry is listed as “decreased cell viability”.
